The source of these data is article PMC12522199 (RSC Advances, 2025).

For the experiment, the target named is HamA (Burkholderia cenocepacia, UniProt A0A144VC93). The experiment in a line: microscale thermophoresis. It counts as binding. (In general: Microscale thermophoresis detects binding through changes in fluorescence in a small temperature gradient.)

Broadly, the Kd is a measure of binding affinity in units of concentration.

The compound `O=C(O)CCC(=O)C(=O)O` [2-oxoglutarate] showed a Kd of 208 ± 1.42 µM.
